Assay results published in patent US20250179059A1 (The Regents of the University of California, priority 2021, published 2025).
Like-named read-outs stand apart in the source and are kept apart here.

What was measured:
[1] = biological target: T1, human BRD4 bromodomain II (Homo sapiens, UniProt O60885); assay: Bromodomain binding assay (AlphaScreen), BRD4 BDII
T1 construct: human BRD4 bromodomain II [based on Genbank NM_058243, residues 349-460]; host or cells: E. coli
Method in brief: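 AlphaScreen competition: His6-BRD4 BDI (aa 44-170) or BDII (aa 349-460) vs biotin-H4(1-21) K5/K8/K12/K16Ac peptide; Ni-chelate acceptor/streptavidin donor beads. HEPES pH 7.5, NaCl, CHAPS, BSA, 1% DMSO; RT. 10-pt 3-fold titration, % peptide binding fitted → IC50.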

[2] = tested on: human SKM-1 acute myeloid leukemia cells; assay: SKM-1 antiproliferation cell-based assay (ATPlite); details: Homo sapiens
Method in brief: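 Log-phase cells in RPMI 1640/15% FBS were seeded at 34722 cells/mL and exposed for 4 days to nine-concentration DMSO serial dilutions in triplicate. Viability was read as ATP luminescence (ATPlite 1step), and IC50 values came from variable-slope non-linear regression.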

[3] = AlphaScreen assay, Table C2, read-out: BRD4 BDII IC50
[4] = SKM-1, 96 h, SKM-1 antiproliferation assay, 4 days, Table C2
[5] = BRD4 BDII AlphaScreen assay, read-out: BRD4 BD2 IC50
[6] = SKM-1, SKM-1 antiproliferation assay

Q: With C[C@@H]1CN(c2cc(-c3cc(F)cc(-c4ccc(-n5ccn(C)c5=O)c(Cl)c4)c3O)cc3[nH]cnc23)CCN1 [Example 522, (R)-1-(3-chloro-5′-fluoro-2′-hydroxy-3′-(4-(3-methylpiperazin-1-yl)-1H-benzo[d]imidazol-6-yl)-[1,1′-biphenyl]-4-yl)-3-methyl-1H-imidazol-2(3H)-one] as the molecule, how does the IC50 [1, 3] read?
A: Its IC50 is 1 to 10 nM.

Q: And the GI50 [2, 4]?
A: The GI50 was 0.3 to 30 nM.

Q: O=C1CCCN1c1ccc(-c2c[nH]cc(-c3cccc(N4CCNCC4)c3)c2=O)cc1F [Example 307, 3-(3-fluoro-4-(2-oxopyrrolidin-1-yl)phenyl)-5-(3-(piperazin-1-yl)phenyl)pyridin-4(1H)-one] was tested. Which IC50 [1, 3] did it give?
A: The IC50 was over 100 nM.

Q: What about the GI50 [2, 4] of the same molecule?
A: The GI50 was at least 3000 nM.

Q: What does the source list for Cn1ccn(-c2ccc(-c3cc(F)cc(-c4ccnc(N5CCN(C67CC(C6)C7)CC5)c4)c3O)cc2Cl)c1=O [Example 662, 1-(3′-(2-(4-(bicyclo[1.1.1]pentan-1-yl)piperazin-1-yl)pyridin-4-yl)-3-chloro-5′-fluoro-2′-hydroxy-[1,1′-biphenyl]-4-yl)-3-methyl-1H-imidazol-2(3H)-one]?
A: IC50 [1, 3]: 1 to 10 nM; GI50 [2, 4]: 30 to 300 nM

Q: What does the source list for CCc1cc(-c2cc(F)cc(-c3ccc(-n4ccn(C)c4=O)c(Cl)c3)c2O)cc(N2CCN(C(C)C)CC2)n1 [Example 704, 1-(3-chloro-3′-(2-ethyl-6-(4-isopropylpiperazin-1-yl)pyridin-4-yl)-5′-fluoro-2′-hydroxy-[1,1′-biphenyl]-4-yl)-3-methyl-1H-imidazol-2(3H)-one]?
A: IC50 [1, 3]: 0.01 to 1 nM; GI50 [2, 4]: 0.3 to 30 nM

Q: What does the source list for Cc1cc(-c2ccc(-n3ccn(C)c3=O)c(Cl)c2)c(O)c(-c2cc(N3CCNCC3)c3nn[nH]c3c2)c1 [Example 565]?
A: IC50 [1, 3]: 0.01 to 1 nM; GI50 [2, 4]: 0.3 to 30 nM

Q: What does the source list for Cn1ccn(-c2ccc(-c3cc(F)cc(-c4cc(N5CCNCC5)c5nccnc5c4)c3O)cc2Cl)c1=O [Example 547, 1-(3-chloro-5′-fluoro-2′-hydroxy-3′-(8-(piperazin-1-yl)quinoxalin-6-yl)-[1,1′-biphenyl]-4-yl)-^3-methyl-1H-imidazol-2(3H)-one]?
A: IC50 [1, 3]: 0.01 to 1 nM; GI50 [2, 4]: 0.3 to 30 nM

Q: With O=C1CCC(=O)N1c1ccc(-c2cccc(-c3ccnc(N4CCNCC4)c3)c2O)cc1F [Example 303, 1-(3-fluoro-2′-hydroxy-3′-(2-(piperazin-1-yl)pyridin-4-yl)-[1,1′-biphenyl]-4-yl)pyrrolidine-2,5-dione] as the molecule, how does the IC50 [1, 3] read?
A: Its IC50 is over 100 nM.

Q: And the GI50 [2, 4]?
A: Its GI50 is at least 3000 nM.

Q: CC(=O)Nc1cccc(-c2cc(F)cc(-c3cccc(N4CCC(C)(O)C4)c3)c2O)c1Cl (stereo not drawn) [Example 893] was tested. Which IC50 [1, 5] did it give?
A: Its IC50 is over 100 nM.

Q: And the GI50 [2, 6]?
A: The GI50 was 300 to 3000 nM.

Q: What does the source list for Cn1ccn(-c2c(O)cc(-c3cc(F)cc(-c4cccc(N5CCN(C(C)(C)C)CC5)c4)c3O)cc2Cl)c1=O [Example 952, 1-(3″-(4-(tert-butyl)piperazin-1-yl)-3-chloro-5′-fluoro-2′,5-dihydroxy-[1,1′:3′,1″-terphenyl]-4-yl)-3-methyl-1H-imidazol-2(3H)-one]?
A: IC50 [1, 5]: > 100 nM; GI50 [2, 6]: 300 to 3000 nM

Q: Which IC50 [1, 3] does the source give for C[C@@H]1CN(c2cc(-c3cc(Cl)cc(-c4ccc(-n5ccn(C)c5=O)c(Cl)c4)c3O)ccn2)CCN1 [Example 540, (R)-1-(3,5′-dichloro-2′-hydroxy-3′-(2-(3-methylpiperazin-1-yl)pyridin-4-yl)-[1,1′-biphenyl]-4-yl)-3-methyl-1H-imidazol-2(3H)-one] here?
A: The IC50 was 1 to 10 nM.

Q: What about the GI50 [2, 4] of the same molecule?
A: Its GI50 is 0.3 to 30 nM.

Q: COc1ncc(-c2cc(F)cc(-c3ccc(-n4ccn(C)c4=O)c(Cl)c3)c2O)cc1N1CCN(C(C)(C)CO)CC1 [Example 960, 1-(3-chloro-5′-fluoro-2′-hydroxy-3′-(5-(4-(1-hydroxy-2-methylpropan-2-yl)piperazin-1-yl)-6-methoxypyridin-3-yl)-[1,1′-biphenyl]-4-yl)-3-methyl-1H-imidazol-2(3H)-one] was tested. Which IC50 [1, 5] did it give?
A: The IC50 was 1 to 10 nM.

Q: And the GI50 [2, 6]?
A: Its GI50 is 0.3 to 30 nM.

Q: With Cn1ccn(-c2ccc(-c3cc(F)cc(-c4cccc(N5CCN(C(C)(C)C)CC5=O)c4)c3O)cc2Cl)c1=O [Example 901] as the molecule, how does the IC50 [1, 5] read?
A: The IC50 was 0.01 to 1 nM.

Q: What about the GI50 [2, 6] of the same molecule?
A: Its GI50 is 30 to 300 nM.

Q: Which results are given for Cn1ccn(-c2ccc(-c3cc(F)cc(-c4ccnc(N5CCN6CCOCC6C5)c4)c3O)cc2Cl)c1=O (stereo not drawn) [Example 647, 1-(3-chloro-5′-fluoro-3′-(2-(hexahydropyrazino[2,1-c][1,4]oxazin-8(1H)-yl)pyridin-4-yl)-2′-hydroxy-[1,1′-biphenyl]-4-yl)-3-methyl-1H-imidazol-2(3H)-one]?
A: IC50 [1, 3]: 0.01 to 1 nM; GI50 [2, 4]: 0.3 to 30 nM

Q: What does the source list for CC(=O)NCCOc1ncc(-c2cc(F)cc(-c3ccc(N4CCN(C)C4=O)c(Cl)c3)c2O)cc1N1CCNCC1 [Example 396, N-(2-((5-(3′-chloro-5-fluoro-2-hydroxy-4′-(3-methyl-2-oxoimidazolidin-1-yl)-[1,1′-biphenyl]-3-yl)-3-(piperazin-1-yl)pyridin-2-yl)oxy)ethyl)acetamide]?
A: IC50 [1, 3]: 1 to 10 nM; GI50 [2, 4]: 30 to 300 nM

Q: What does the source list for CC(=O)Nc1ccc(-c2cc(F)cc(-c3cccc(N4CCN(C(C)(C)C)CC4)c3)c2O)nc1 [Example 912, N-(6-(3′-(4-(tert-butyl)piperazin-1-yl)-5-fluoro-2-hydroxy-[1,1′-biphenyl]-3-yl)pyridin-3-yl)acetamide]?
A: IC50 [1, 5]: > 100 nM; GI50 [2, 6]: 300 to 3000 nM

Q: CN1CCN(c2ccc(-c3cccc(-c4ccnc(N5CCNCC5)c4)c3O)cc2F)C1=O [Example 240, 1-(3-fluoro-2′-hydroxy-3′-(2-(piperazin-1-yl)pyridin-4-yl)-[1,1′-biphenyl]-4-yl)-3-methylimidazolidin-2-one] was tested. Which IC50 [1, 3] did it give?
A: The IC50 was 1 to 10 nM.

Q: What about the GI50 [2, 4] of the same molecule?
A: The GI50 was 30 to 300 nM.

Q: With Cn1ccn(-c2c(Cl)cc(-c3cc(F)cc(-c4cccc(N5CCN(C(C)(C)C)CC5)c4)c3O)cc2C2CC2)c1=O [Example 933, 1-(3″-(4-(tert-butyl)piperazin-1-yl)-3-chloro-5-cyclopropyl-5′-fluoro-2′-hydroxy-[1,1′:3′,1″-terphenyl]-4-yl)-3-methyl-1H-imidazol-2(3H)-one] as the molecule, how does the IC50 [1, 5] read?
A: Its IC50 is 10 to 100 nM.

Q: What about the GI50 [2, 6] of the same molecule?
A: Its GI50 is 30 to 300 nM.

Q: CN1CCN(c2ccc(-c3cc(F)cc(-c4cc(N5CCNCC5)c5[nH]ncc5c4)c3O)cc2Cl)C1=O [Example 424, 1-(3-chloro-5′-fluoro-2′-hydroxy-3′-(7-(piperazin-1-yl)-1H-indazol-5-yl)-[1,1′-biphenyl]-4-yl)-3-methylimidazolidin-2-one] was tested. Which IC50 [1, 3] did it give?
A: Its IC50 is 0.01 to 1 nM.

Q: What about the GI50 [2, 4] of the same molecule?
A: The GI50 was 30 to 300 nM.

Q: How did the IC50 [1, 3] turn out when Cn1ccn(-c2ccc(-c3cc(F)cc(-c4ccnc(N5CCN(C[C@@H](O)CO)CC5)c4)c3O)cc2Cl)c1=O [Example 610, (R)-1-(3-chloro-3′-(2-(4-(2,3-dihydroxypropyl)piperazin-1-yl)pyridin-4-yl)-5′-fluoro-2′-hydroxy-[1,1′-biphenyl]-4-yl)-3-methyl-1H-imidazol-2(3H)-one] was run?
A: Its IC50 is 0.01 to 1 nM.

Q: And the GI50 [2, 4]?
A: The GI50 was 0.3 to 30 nM.

Q: Which results are given for Cn1ccn(-c2ccc(-c3cc(F)cc(-c4ccnc(N5CC[C@H](N)C5)c4)c3O)cc2Cl)c1=O [Example 423, (S)-1-(3′-(2-(3-aminopyrrolidin-1-yl)pyridin-4-yl)-3-chloro-5′-fluoro-2′-hydroxy-[1,1′-biphenyl]-4-yl)-3-methyl-1H-imidazol-2(3H)-one]?
A: IC50 [1, 3]: 0.01 to 1 nM; GI50 [2, 4]: 0.3 to 30 nM

Q: Which IC50 [1, 3] does the source give for Cn1cc(-c2cc(F)cc(-c3ccc(-n4ccn(C)c4=O)c(Cl)c3)c2O)cc(N2CCC(C)(O)C2)c1=O (stereo not drawn) [Example 725, 5-(3′-chloro-5-fluoro-2-hydroxy-4′-(3-methyl-2-oxo-2,3-dihydro-1H-imidazol-1-yl)-[1,1′-biphenyl]-3-yl)-3-(3-hydroxy-3-methylpyrrolidin-1-yl)-1-methylpyridin-2(1H)-one] here?
A: The IC50 was 1 to 10 nM.

Q: What about the GI50 [2, 4] of the same molecule?
A: Its GI50 is 30 to 300 nM.

Q: How did the IC50 [1, 3] turn out when CCC1(O)CCN(c2cc(-c3cc(F)cc(-c4ccc(-n5ccn(C)c5=O)c(Cl)c4)c3O)ccn2)C1 (stereo not drawn) [Example 737, 1-(3-chloro-3′-(2-(3-ethyl-3-hydroxypyrrolidin-1-yl)pyridin-4-yl)-5′-fluoro-2′-hydroxy-[1,1′-biphenyl]-4-yl)-3-methyl-1H-imidazol-2(3H)-one] was run?
A: The IC50 was 0.01 to 1 nM.

Q: And the GI50 [2, 4]?
A: The GI50 was 0.3 to 30 nM.

Q: What does the source list for Cn1ccn(-c2ccc(-c3cc(F)cc(-c4ccnc(N5CCNC(c6ccccc6)C5)c4)c3O)cc2Cl)c1=O (stereo not drawn) [Example 631, 1-(3-chloro-5′-fluoro-2′-hydroxy-3′-(2-(3-phenylpiperazin-1-yl)pyridin-4-yl)-[1,1′-biphenyl]-4-yl)-3-methyl-1H-imidazol-2(3H)-one]?
A: IC50 [1, 3]: 0.01 to 1 nM; GI50 [2, 4]: 30 to 300 nM

Q: CCN1CCN(c2ccc(-c3cccc(-c4ccnc(N5CCNCC5)c4)c3O)cc2Cl)C1=O [Example 346, 1-(3-chloro-2′-hydroxy-3′-(2-(piperazin-1-yl)pyridin-4-yl)-[1,1′-biphenyl]-4-yl)-3-ethylimidazolidin-2-one] was tested. Which IC50 [1, 3] did it give?
A: The IC50 was over 100 nM.

Q: What about the GI50 [2, 4] of the same molecule?
A: Its GI50 is 300 to 3000 nM.

Q: Which IC50 [1, 3] does the source give for Cn1ccn(-c2ccc(-c3cc(F)cc(-c4cc(N5CC6CCC(C5)N6)c5cnn(C)c5c4)c3O)cc2Cl)c1=O [Example 607, 1-(3′-(4-(3,8-diazabicyclo[3.2.1]octan-3-yl)-1-methyl-1H-indazol-6-yl)-3-chloro-5′-fluoro-2′-hydroxy-[1,1′-biphenyl]-4-yl)-3-methyl-1H-imidazol-2(3H)-one] here?
A: The IC50 was 0.01 to 1 nM.

Q: And the GI50 [2, 4]?
A: Its GI50 is 0.3 to 30 nM.

Q: Which results are given for CC(C)N1CCCC12CCN(c1cccc(-c3cc(F)cc(-c4ccc(-n5ccn(C)c5=O)c(Cl)c4)c3O)c1)C2 (stereo not drawn) [Example 909, 1-(3-chloro-5′-fluoro-2′-hydroxy-3″-(1-isopropyl-1,7-diazaspiro[4.4]nonan-7-yl)-[1,1′:3′,1″-terphenyl]-4-yl)-3-methyl-1H-imidazol-2(3H)-one]?
A: IC50 [1, 5]: 1 to 10 nM; GI50 [2, 6]: 30 to 300 nM

Q: O=C1CCCN1c1ccc(-c2cc(F)cc(-c3ccnc(N4CC5(CNC5)C4)c3)c2O)cc1Cl [Example 324, 1-(3′-(2-(2,6-diazaspiro[3.3]heptan-2-yl)pyridin-4-yl)-3-chloro-5′-fluoro-2′-hydroxy-[1,1′-biphenyl]-4-yl)pyrrolidin-2-one] was tested. Which IC50 [1, 3] did it give?
A: Its IC50 is 10 to 100 nM.

Q: And the GI50 [2, 4]?
A: Its GI50 is 300 to 3000 nM.
